Consider 1 compound from patent US20220364065A1, “COMPOSITION FOR REMOVING PLURIPOTENT STEM CELLS AND METHOD OF REMOVING PLURIPOTENT STEM CELLS” (NATIONAL UNIVERSITY CORPORATION HOKKAIDO UNIVERSITY, priority 2018, published 2022).

The series has as its system mouse neural stem cells. As to the kind of experiment: Sox2 immunostaining, neural stem cells. Type of series: cell-based. Particulars: 10 μM BRQ, 24 hours. The protocol:
The cells were fixed and immunostained as described in Kondo et al., Genes Dev. 2004, Vol. 18, Issue 23, pp. 2963-72. […] For the culture of mNSCs, PDL+fibronectin-coated ones were used (see Johe KK et al., Genes Dev. 1996, Vol. 10, Issue 24, pp. 3129 to 3140). For the culture of ES cells and iPS cells, gelatin-coated ones were used.
For immunostaining, the cells were first washed once with PBS, then fixed by adding 4% paraformaldehyde and incubating for 10 minutes at room temperature. The cells were replaced with PBS containing 0.3% Triton X100 and incubated for 5 minutes at room temperature, then replaced with PBS containing 0.3% Triton X100 and 10% FCS (blocking solution) and incubated for 30 minutes at room temperature. The solution was replaced with primary antibody solution diluted in blocking solution and incubated for 2 hours at room temperature. After washing three times with PBS, secondary antibody and DAPI solution diluted with blocking solution were added and incubated at room temperature for 2 hours. After washing three times with PBS, the cells were sealed with anti-fading agent (manufactured by DAKO, code number: 53023) and observed under a microscope. […] In addition, fluorescence images were acquired with an Axiolmager M1 microscope (manufactured by Carl Zeiss). […]

SMILES strings stand for the structures.

As for `Cc1c(-c2ccc(-c3ccccc3F)cc2)nc2ccc(F)cc2c1C(=O)O` [BRQ, 6-fluoro-2-(2′-fluoro-1,1′-biphenyl-4-yl)-3-methyl-4-quinoline-sodium carboxylate], the “changes in proliferation/death and Sox2 expression” value is on record as “no similar changes were observed”.
